Values after ≈ are worked out from the molar mass of the structure shown.
What was measured:
[1] = test system: Staphylococcus epidermidis; assay: Antibacterial activity against methicillin-sensitive Staphylococcus epidermidis ATCC 12228 after 18 hrs by CLSI broth microdilution method; type: functional; conditions: ATCC 12228, 18 h
[2] = test system: Staphylococcus epidermidis; assay: Antibacterial activity against methicillin-resistant Staphylococcus epidermidis 12-8 after 18 hrs by CLSI broth microdilution method; type: functional; conditions: 12-8, 18 h
[3] = test system: Staphylococcus aureus; assay: Antibacterial activity against methicillin-sensitive Staphylococcus aureus ATCC 29213 after 18 hrs by CLSI broth microdilution method; type: functional; conditions: ATCC 29213, 18 h
[4] = test system: Staphylococcus aureus; assay: Antibacterial activity against methicillin-resistant Staphylococcus aureus 12-33 after 18 hrs by CLSI broth microdilution method; type: functional; conditions: 12-33, 18 h
[5] = test system: Enterococcus faecalis; assay: Antibacterial activity against vancomycin-sensitive Enterococcus faecalis ATCC 29212 after 18 hrs by CLSI broth microdilution method; type: functional; conditions: ATCC 29212, 18 h
[6] = test system: Enterococcus faecalis; assay: Antibacterial activity against vancomycin-resistant Enterococcus faecalis 09-9 after 18 hrs by CLSI broth microdilution method; type: functional; conditions: 09-9, 18 h
[7] = test system: Enterococcus faecium; assay: Antibacterial activity against vancomycin-resistant Enterococcus faecium ATCC 700221 after 18 hrs by CLSI broth microdilution method; type: functional; conditions: ATCC 700221, 18 h
[8] = test system: Enterococcus faecium; assay: Antibacterial activity against vancomycin-sensitive Enterococcus faecium 12-3 after 18 hrs by CLSI broth microdilution method; type: functional; conditions: 12-3, 18 h
[9] = test system: Escherichia coli; assay: Antibacterial activity against extended-spectrum beta-lactamase deficient Escherichia coli ATCC 25922 after 18 hrs by CLSI broth microdilution method; type: functional; conditions: ATCC 25922, 18 h
[10] = test system: Escherichia coli; assay: Antibacterial activity against extended-spectrum beta-lactamase harboring Escherichia coli 12-15 after 18 hrs by CLSI broth microdilution method; type: functional; conditions: 12-15, 18 h
[11] = test system: Klebsiella pneumoniae; assay: Antibacterial activity against extended-spectrum beta-lactamase harboring Klebsiella pneumoniae ATCC 700603 after 18 hrs by CLSI broth microdilution method; type: functional; conditions: Klebsiella pneumoniae, 700603, 18 h
[12] = test system: Klebsiella pneumoniae; assay: Antibacterial activity against new delhi metallo-beta-lactamase-1 harboring Klebsiella pneumoniae ATCC BAA-2146 after 18 hrs by CLSI broth microdilution method; type: functional; conditions: ATCC BAA-2146, 18 h
[13] = test system: Klebsiella pneumoniae; assay: Antibacterial activity against extended-spectrum beta-lactamase harboring Klebsiella pneumoniae 12-8 after 18 hrs by CLSI broth microdilution method; type: functional; conditions: 12-8, 18 h
[14] = test system: Pseudomonas aeruginosa; assay: Antibacterial activity against Pseudomonas aeruginosa ATCC 27853 after 18 hrs by CLSI broth microdilution method; type: functional; conditions: ATCC 27853, 18 h
[15] = test system: Acinetobacter calcoaceticus; assay: Antibacterial activity against Acinetobacter calcoaceticus ATCC 19606 after 18 hrs by CLSI broth microdilution method; type: functional; conditions: ATCC 19606, 18 h
[16] = test system: Enterobacter cloacae; assay: Antibacterial activity against Enterobacter cloacae ATCC 43560 after 18 hrs by CLSI broth microdilution method; type: functional; conditions: ATCC 43560, 18 h
[17] = test system: Proteus mirabilis; assay: Antibacterial activity against Proteus mirabilis 12-6 after 18 hrs by CLSI broth microdilution method; type: functional; conditions: 12-6, 18 h
[18] = Cytotoxicity against HEK293T cells assessed as reduction in cell viability after 48 hrs by MTS assay; type: cell-based, HEK-293T; conditions: human
[19] = test system: Staphylococcus epidermidis; assay: Antibacterial activity against methicillin-sensitive Staphylococcus epidermidis 12-6 after 18 hrs by CLSI broth microdilution method; type: functional; conditions: 12-6, 18 h
[20] = test system: Staphylococcus aureus; assay: Antibacterial activity against methicillin-resistant Staphylococcus aureus ATCC 33591 after 18 hrs by CLSI broth microdilution method; type: functional; conditions: ATCC 33591, 18 h
[21] = test system: Staphylococcus aureus; assay: Antibacterial activity against methicillin-sensitive Staphylococcus aureus 15 after 18 hrs by CLSI broth microdilution method; type: functional; conditions: Staphylococcus aureus, 15, 18 h
[22] = test system: Staphylococcus aureus; assay: Antibacterial activity against methicillin-sensitive Staphylococcus aureus 12-28 after 18 hrs by CLSI broth microdilution method; type: functional; conditions: 12-28, 18 h
[23] = test system: Enterococcus faecalis; assay: Antibacterial activity against vancomycin-resistant Enterococcus faecalis ATCC 51299 after 18 hrs by CLSI broth microdilution method; type: functional; conditions: ATCC 51299, 18 h
[24] = test system: Enterococcus faecalis; assay: Antibacterial activity against vancomycin-sensitive Enterococcus faecalis 12-5 after 18 hrs by CLSI broth microdilution method; type: functional; conditions: 12-5, 18 h
[25] = test system: Enterococcus faecium; assay: Antibacterial activity against vancomycin-resistant Enterococcus faecium 12-1 after 18 hrs by CLSI broth microdilution method; type: functional; conditions: 12-1, 18 h
[26] = test system: Escherichia coli; assay: Antibacterial activity against extended-spectrum beta-lactamase deficient Escherichia coli 1515 after 18 hrs by CLSI broth microdilution method; type: functional; conditions: Escherichia coli, 1515, 18 h
[27] = test system: Escherichia coli; assay: Antibacterial activity against extended-spectrum beta-lactamase deficient Escherichia coli 12-14 after 18 hrs by CLSI broth microdilution method; type: functional; conditions: 12-14, 18 h
[28] = test system: Klebsiella pneumoniae; assay: Antibacterial activity against extended-spectrum beta-lactamase deficient Klebsiella pneumoniae 7 after 18 hrs by CLSI broth microdilution method; type: functional; conditions: Klebsiella pneumoniae, 7, 18 h
[29] = test system: Klebsiella pneumoniae; assay: Antibacterial activity against extended-spectrum beta-lactamase deficient Klebsiella pneumoniae 12-4 after 18 hrs by CLSI broth microdilution method; type: functional; conditions: 12-4, 18 h
[30] = test system: Pseudomonas aeruginosa; assay: Antibacterial activity against Pseudomonas aeruginosa PAO1 after 18 hrs by CLSI broth microdilution method; type: functional; conditions: PAO1, 18 h
[31] = test system: Pseudomonas aeruginosa; assay: Antibacterial activity against Pseudomonas aeruginosa 12-16 after 18 hrs by CLSI broth microdilution method; type: functional; conditions: 12-16, 18 h
[32] = test system: Klebsiella aerogenes; assay: Antibacterial activity against Enterobacter aerogenes ATCC 13048 after 18 hrs by CLSI broth microdilution method; type: functional; conditions: ATCC 13048, 18 h
[33] = test system: Serratia marcescens; assay: Antibacterial activity against Serratia marcescens ATCC 21074 after 18 hrs by CLSI broth microdilution method; type: functional; conditions: ATCC 21074, 18 h
[34] = test system: Providencia rettgeri; assay: Antibacterial activity against Providencia rettgeri ATCC 31052 after 18 hrs by CLSI broth microdilution method; type: functional; conditions: ATCC 31052, 18 h
[35] = test system: Proteus vulgaris; assay: Antibacterial activity against Proteus vulgaris ATCC 29905 after 18 hrs by CLSI broth microdilution method; type: functional; conditions: ATCC 29905, 18 h
[36] = test system: Stenotrophomonas maltophilia; assay: Antibacterial activity against Stenotrophomonas maltophilia ATCC 13636 after 18 hrs by CLSI broth microdilution method; type: functional; conditions: ATCC 13636, 18 h
[37] = test system: Citrobacter freundii; assay: Antibacterial activity against Citrobacter freundii ATCC 43864 after 18 hrs by CLSI broth microdilution method; type: functional; conditions: ATCC 43864, 18 h
[38] = test system: Staphylococcus aureus; assay: Potency index, ratio of levofloxacin MIC to compound MIC for methicillin-resistant Staphylococcus aureus 12-33; type: functional
[39] = test system: Staphylococcus aureus; assay: Potency index, ratio of levofloxacin MIC to compound MIC for methicillin-resistant Staphylococcus aureus ATCC 33591; type: functional
[40] = test system: Enterococcus faecalis; assay: Potency index, ratio of levofloxacin MIC to compound MIC for vancomycin-resistant Enterococcus faecalis ATCC 51299; type: functional
[41] = test system: Enterococcus faecium; assay: Potency index, ratio of levofloxacin MIC to compound MIC for vancomycin-resistant Enterococcus faecium ATCC 700221; type: functional
[42] = test system: Enterococcus faecalis; assay: Potency index, ratio of levofloxacin MIC to compound MIC for vancomycin-resistant Enterococcus faecalis 09-9; type: functional
[43] = test system: Enterococcus faecium; assay: Potency index, ratio of levofloxacin MIC to compound MIC for vancomycin-resistant Enterococcus faecium 12-1; type: functional

N=C(c1ccc2cc(-c3ccc(-c4cc5ccc(C(=N)N6CCC(N7CCCC7)CC6)cc5[nH]4)cc3)[nH]c2c1)N1CCC(N2CCCC2)CC1
MIC [1]: 4 µg/mL (≈ 6 µM)
MIC [2]: 8 µg/mL (≈ 12 µM)
MIC [3]: 8 µg/mL (≈ 12 µM)
MIC [4]: 8 µg/mL (≈ 12 µM)
MIC [5]: 16 µg/mL (≈ 24 µM)
MIC [6]: 16 µg/mL (≈ 24 µM)
MIC [7]: 16 µg/mL (≈ 24 µM)
MIC [8]: 16 µg/mL (≈ 24 µM)
MIC [9]: 8 µg/mL (≈ 12 µM)
MIC [10]: 16 µg/mL (≈ 24 µM)
MIC [11]: 64 µg/mL (≈ 96 µM)
MIC [12]: 32 µg/mL (≈ 48 µM)
MIC [13]: 16 µg/mL (≈ 24 µM)
MIC [14]: 16 µg/mL (≈ 24 µM)
MIC [15]: > 128 µg/mL
MIC [16]: 16 µg/mL (≈ 24 µM)
MIC [17]: > 128 µg/mL
CC50 at 48 h [18]: 50 µg/mL (≈ 75 µM)
MIC [19]: 8 µg/mL (≈ 12 µM)
MIC [20]: 8 µg/mL (≈ 12 µM)
MIC [21]: 8 µg/mL (≈ 12 µM)
MIC [22]: 8 µg/mL (≈ 12 µM)
MIC [23]: 32 µg/mL (≈ 48 µM)
MIC [24]: 64 µg/mL (≈ 96 µM)
MIC [25]: 16 µg/mL (≈ 24 µM)
MIC [26]: 16 µg/mL (≈ 24 µM)
MIC [27]: 16 µg/mL (≈ 24 µM)
MIC [28]: 16 µg/mL (≈ 24 µM)
MIC [29]: 16 µg/mL (≈ 24 µM)
MIC [30]: 128 µg/mL (≈ 192 µM)
MIC [31]: 128 µg/mL (≈ 192 µM)
MIC [32]: 16 µg/mL (≈ 24 µM)
MIC [33]: > 128 µg/mL
MIC [34]: 128 µg/mL (≈ 192 µM)
MIC [35]: 128 µg/mL (≈ 192 µM)
MIC [36]: 128 µg/mL (≈ 192 µM)
MIC [37]: 16 µg/mL (≈ 24 µM)
Ratio [38]: 4 - 128
Ratio [39]: 4 - 128
Ratio [40]: 4 - 512
Ratio [41]: 4 - 512
Ratio [42]: 4 - 512
Ratio [43]: 4 - 512

From ChEMBL document CHEMBL4229379, “Synthesis and structure-activity relationship of novel bisindole amidines active against MDR Gram-positive and Gram-negative bacteria” (Eur J Med Chem, 2018)
